Test results reported in ChEMBL document CHEMBL1201862, “PubChem BioAssay data set” (2004).
Values belong to the molecule of their own block, whether it stands above or below them. The source made the active and inactive calls.

What was measured:
[1] = molecular target: T1, Corticotropin-releasing factor receptor 2/Corticotropin-releasing factor-binding protein (Homo sapiens, UniProt P24387+Q13324); test: Dose Response confirmation of uHTS hits for small molecule antagonists of the CRF-binding protein and CRF-R2 receptor complex.; assay type: functional; conditions: read-out: IC50_Mean
T1 sequence (Q13324 whole entry): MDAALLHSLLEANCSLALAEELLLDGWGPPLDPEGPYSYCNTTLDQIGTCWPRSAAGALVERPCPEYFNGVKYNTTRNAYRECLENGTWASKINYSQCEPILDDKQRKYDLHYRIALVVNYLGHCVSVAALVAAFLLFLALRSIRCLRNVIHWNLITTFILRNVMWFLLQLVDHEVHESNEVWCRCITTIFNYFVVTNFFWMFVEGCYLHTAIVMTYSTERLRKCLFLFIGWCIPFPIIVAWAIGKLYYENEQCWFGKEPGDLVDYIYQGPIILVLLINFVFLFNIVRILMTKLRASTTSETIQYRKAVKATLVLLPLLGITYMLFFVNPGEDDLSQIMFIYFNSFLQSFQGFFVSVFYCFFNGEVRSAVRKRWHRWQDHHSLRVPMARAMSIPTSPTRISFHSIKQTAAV
T1 sequence (P24387 whole entry): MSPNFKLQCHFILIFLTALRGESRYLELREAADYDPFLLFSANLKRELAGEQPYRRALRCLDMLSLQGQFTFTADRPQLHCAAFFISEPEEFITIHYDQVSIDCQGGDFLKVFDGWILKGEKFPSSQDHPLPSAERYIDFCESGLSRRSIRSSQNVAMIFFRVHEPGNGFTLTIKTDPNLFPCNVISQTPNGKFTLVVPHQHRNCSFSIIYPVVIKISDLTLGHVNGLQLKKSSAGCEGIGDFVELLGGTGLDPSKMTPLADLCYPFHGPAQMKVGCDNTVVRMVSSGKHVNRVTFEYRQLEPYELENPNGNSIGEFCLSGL

[2] = molecular target: T1, Corticotropin-releasing factor receptor 2/Corticotropin-releasing factor-binding protein; test: activators of CRF receptor 2 with binding protein – uHTS hits, confirmation (AID 602473); assay type: functional; conditions: read-out: EC50_Mean
Cytochrome P450 2C9 = Cytochrome P450 2C9 (Homo sapiens, UniProt P11712)
Cytochrome P450 1A2 = molecular target: T2, Cytochrome P450 1A2 (Homo sapiens, UniProt P05177);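 note: PubChem cytochrome P450 panel assay, CYP1A2 panel member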
T2 sequence (P05177 whole entry): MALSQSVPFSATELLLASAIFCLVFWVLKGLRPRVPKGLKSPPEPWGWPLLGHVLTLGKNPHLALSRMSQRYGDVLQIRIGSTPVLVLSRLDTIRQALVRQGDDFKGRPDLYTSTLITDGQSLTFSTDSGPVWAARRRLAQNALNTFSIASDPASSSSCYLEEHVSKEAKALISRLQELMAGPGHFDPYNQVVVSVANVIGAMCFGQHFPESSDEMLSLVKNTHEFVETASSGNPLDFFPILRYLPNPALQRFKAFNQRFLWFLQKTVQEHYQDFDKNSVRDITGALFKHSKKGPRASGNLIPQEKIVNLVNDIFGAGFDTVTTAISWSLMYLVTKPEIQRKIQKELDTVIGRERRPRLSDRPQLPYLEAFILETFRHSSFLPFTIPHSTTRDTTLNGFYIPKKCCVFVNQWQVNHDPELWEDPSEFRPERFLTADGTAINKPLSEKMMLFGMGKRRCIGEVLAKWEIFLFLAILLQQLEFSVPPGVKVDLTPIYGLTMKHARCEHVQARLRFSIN

Cytochrome P450 3A4 = Cytochrome P450 3A4 (Homo sapiens, UniProt P08684);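 note: CYP3A4 tested as one member of a cytochrome P450 panel screen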
[3] = NIH-3T3 fibroblast cytotoxicity, dose response, cytotoxicity control, cell-based, fluorescence, Alamar Blue, secondary assay (AID 2327); assay type: functional;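 note: NIH-3T3 mouse fibroblasts cultured with fluconazole at 8 µg/mL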
[4] = fluconazole-exposed Candida albicans growth modulators – fluorescence, retest, confirmation (AID 2467); assay type: functional, cell-based
Streptococcus = test: GAS UMAA2166 growth inhibition – luminescence, BacTiterGlo, counter-screen for streptokinase expression inhibitor project, dose response (AID 1915); assay type: functional, organism-based;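 note: potency for reduction of bacterial viability or growth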
[5] = system: Streptococcus sp. 'group A'; test: Streptococcus pyogenes SK(-)GAS viability under kanamycin – luminescence, BacTiterGlo, confirmation, counter-screen for streptokinase expression inhibitor project, dose response (AID 1900); assay type: functional, organism-based
Cytochrome P450 2C19 = Cytochrome P450 2C19 (Homo sapiens, UniProt P33261); test: Cytochrome panel assay with activity outcomes. Panel member name: p450-cyp2c19 Compounds with AC50 equal or less than 10 uM are considered active; assay type: functional
[6] = Luminescence Cell-Based Dose Response HTS to Identify Activators of Luciferase Translation or Activity in H4 […] Cells. [Related pubchem assays: 1829 (Project Summary), 1814 (Primary HTS)]; assay type: functional

Cytochrome P450 3A4, sequence (P08684 whole entry): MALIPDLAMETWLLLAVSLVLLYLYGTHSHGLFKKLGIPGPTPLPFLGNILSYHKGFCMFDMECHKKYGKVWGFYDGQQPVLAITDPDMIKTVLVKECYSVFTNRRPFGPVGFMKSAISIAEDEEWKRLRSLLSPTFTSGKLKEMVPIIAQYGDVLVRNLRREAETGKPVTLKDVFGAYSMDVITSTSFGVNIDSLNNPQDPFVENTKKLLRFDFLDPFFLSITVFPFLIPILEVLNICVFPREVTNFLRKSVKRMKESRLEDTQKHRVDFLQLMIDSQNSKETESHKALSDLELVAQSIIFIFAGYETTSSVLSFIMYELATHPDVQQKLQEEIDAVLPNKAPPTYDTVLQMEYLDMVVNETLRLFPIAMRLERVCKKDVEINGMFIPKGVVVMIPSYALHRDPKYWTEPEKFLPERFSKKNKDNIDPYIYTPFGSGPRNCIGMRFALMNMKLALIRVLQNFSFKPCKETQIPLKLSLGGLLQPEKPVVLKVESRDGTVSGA
Cytochrome P450 2C9, sequence (P11712 whole entry): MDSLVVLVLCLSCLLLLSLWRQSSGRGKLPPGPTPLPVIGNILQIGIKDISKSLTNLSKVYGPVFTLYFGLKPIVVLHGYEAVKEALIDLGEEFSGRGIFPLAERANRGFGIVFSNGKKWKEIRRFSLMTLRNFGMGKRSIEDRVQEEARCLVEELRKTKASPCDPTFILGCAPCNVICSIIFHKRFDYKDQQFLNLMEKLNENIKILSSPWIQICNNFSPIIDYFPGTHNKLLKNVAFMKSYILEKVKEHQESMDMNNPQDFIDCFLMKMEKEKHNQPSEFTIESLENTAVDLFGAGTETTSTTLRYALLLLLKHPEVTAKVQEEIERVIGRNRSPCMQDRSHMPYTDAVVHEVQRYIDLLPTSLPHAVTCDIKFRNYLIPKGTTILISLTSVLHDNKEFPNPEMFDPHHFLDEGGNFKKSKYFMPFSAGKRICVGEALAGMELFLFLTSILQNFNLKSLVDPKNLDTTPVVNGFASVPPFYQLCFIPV
Cytochrome P450 2C19, sequence (P33261 whole entry): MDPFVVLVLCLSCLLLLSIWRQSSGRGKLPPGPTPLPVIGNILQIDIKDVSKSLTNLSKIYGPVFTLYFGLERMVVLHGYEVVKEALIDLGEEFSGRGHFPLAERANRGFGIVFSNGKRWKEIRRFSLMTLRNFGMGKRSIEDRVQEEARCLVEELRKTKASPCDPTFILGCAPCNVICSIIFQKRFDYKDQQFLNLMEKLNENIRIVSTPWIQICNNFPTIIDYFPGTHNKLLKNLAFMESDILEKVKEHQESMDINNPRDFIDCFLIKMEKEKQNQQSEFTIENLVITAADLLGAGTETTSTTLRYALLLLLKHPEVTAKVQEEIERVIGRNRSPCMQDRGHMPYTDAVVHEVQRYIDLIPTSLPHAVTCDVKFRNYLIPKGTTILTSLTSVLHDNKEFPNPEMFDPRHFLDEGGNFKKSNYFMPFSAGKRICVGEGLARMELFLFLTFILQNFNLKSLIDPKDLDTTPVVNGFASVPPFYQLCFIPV

Structure (SMILES): CN1CCN(c2ncc3nc(-c4cc(F)cc(F)c4)c(=O)n(CCC#N)c3n2)CC1
- AC50 (Cytochrome P450 1A2): 15.8 µM (inconclusive)
- AC50 (Cytochrome P450 3A4): 15.8 µM (inconclusive)
- AC50 (Cytochrome P450 2C9): 31.6 µM (inconclusive)

Structure (SMILES): C/C(O)=C(/C#N)C(=O)Nc1cc(Br)ccc1Br
- AC50 (Cytochrome P450 3A4): 15.8 µM (inconclusive)

Structure (SMILES): Brc1ccc(CSc2nnc(-c3cnccn3)n2Cc2ccco2)cc1
- EC50 [3]: > 160 µM (inconclusive)
- EC50 [4]: 1.58 µM (active)

Structure (SMILES): COc1cccc(CN(C(=O)c2cc3ccccc3oc2=O)C2CC2)c1
- EC50 [3]: 18.6 µM (inconclusive)
- EC50 [4]: > 38 µM (not active)

Structure (SMILES): Cc1cc(C(=O)N[C@@H](c2ccccc2)[C@]2(C)C[C@H]2[C@@H](C)C(=O)Nc2ccc3ccccc3c2)n(C)n1
- AC50 (Cytochrome P450 1A2): 12.6 µM (inconclusive)

Structure (SMILES): O=C(NC(=S)N1CCN(c2nc(-c3ccccc3)cs2)CC1)c1cncc(Br)c1
- EC50 (Streptococcus): 3.91 µM (active)
- EC50 [5]: 3.04 µM (active)

Structure (SMILES): COc1ccc(-n2c(=O)c(-c3cccs3)nc3cnc(Nc4ccccc4)nc32)cc1
- AC50 (Cytochrome P450 1A2): 31.6 µM (inconclusive)

Structure (SMILES): CCOC(=O)c1csc(Nc2nc3ccc(F)cc3s2)n1
- EC50 (Streptococcus): 11.4 µM (active)
- EC50 [5]: 5.24 µM (active)

Structure (SMILES): Cc1cc(C)n(C(=O)CNC(=O)c2ccccc2Br)n1
- IC50 [1]: > 47.1 µM (inactive)
- EC50 [2]: > 53 µM (inactive)

Structure (SMILES): CCCCNC(=O)c1cn(C)c2ccc(S(=O)(=O)N3CCCC3)cc2c1=O
- EC50 [3]: > 150 µM (inactive)

Structure (SMILES): CCOC(=O)c1sc(NC(=O)C(C)(C)C)cc1C
- EC50 [6]: 13 µM (active)

The next lines start with the values.

- IC50 [1]: > 47.1 µM (inactive)
- EC50 [2]: > 53 µM (inactive)
Structure (SMILES): Cc1[nH]c(=O)[nH]c(=O)c1S(=O)(=O)N1CCCC(C(=O)N2CCN(c3ccccc3Cl)CC2)C1 (stereo not given)

- AC50 (Cytochrome P450 2C9): 31.6 µM (inconclusive)
Structure (SMILES): CC(C)(Oc1ccc([C@@H]2CC2(Cl)Cl)cc1)C(=O)O

- AC50 (Cytochrome P450 1A2): 5.01 µM (inconclusive)
- AC50 (Cytochrome P450 3A4): 15.8 µM (inconclusive)
Structure (SMILES): O=c1c(-c2cc(F)cc(F)c2)nc2cncnc2n1Cc1ccccc1Cl

- IC50 [1]: > 47.1 µM (inactive)
- EC50 [2]: > 53 µM (inactive)
Structure (SMILES): NC(=O)c1ccc(NCC2COc3ccccc3O2)c([N+](=O)[O-])c1 (stereo not given)

- IC50 [1]: > 47.1 µM (inactive)
- EC50 [2]: > 53 µM (inactive)
Structure (SMILES): O=C(Nc1cccc(O)c1)c1ccc(NC(=O)c2cccs2)cc1

- AC50 (Cytochrome P450 3A4): 7.94 µM (inconclusive)
Structure (SMILES): Cc1ccc(S(=O)(=O)n2ccc(-c3cccc(OCc4c(F)cccc4Cl)c3)n2)cc1

- AC50 (Cytochrome P450 1A2): 15.8 µM (inconclusive)
Structure (SMILES): Cc1ccc(COc2coc(CO)cc2=O)cc1

- AC50 (Cytochrome P450 1A2): 22.4 µM (inconclusive)
- AC50 (Cytochrome P450 2C9): 25.1 µM (inconclusive)
Structure (SMILES): Cc1cccc(C)c1NC(=S)NC(=O)CCc1ccccc1

- AC50 (Cytochrome P450 1A2): 10 µM (inconclusive)
Structure (SMILES): CC(=O)NC(NC(C)=O)c1ccc(Br)cc1

- IC50 [1]: > 47.1 µM (inactive)
- EC50 [2]: > 53 µM (inactive)
Structure (SMILES): Cc1ccccc1Cn1c(=O)sc2ccccc2c1=O

- AC50 (Cytochrome P450 3A4): 20 µM (inconclusive)
Structure (SMILES): CC(C)CN1CC[C@@]2(CCCN(C(=O)c3csnn3)C2)C1

- AC50 (Cytochrome P450 1A2): 2.51 µM (inconclusive)
- AC50 (Cytochrome P450 3A4): 12.6 µM (inconclusive)
- AC50 (Cytochrome P450 2C9): 0.794 µM (inconclusive)
Structure (SMILES): COc1cccc(Cn2c(=O)c(-c3cccs3)nc3cnc(Nc4cccc(OC)c4)nc32)c1

- AC50 (Cytochrome P450 1A2): 12.6 µM (inconclusive)
- AC50 (Cytochrome P450 2C19; read-out: AC50): 8.91 µM (inconclusive)
- AC50 (Cytochrome P450 3A4): 17.8 µM (inconclusive)
- AC50 (Cytochrome P450 2C9): 8.91 µM (inconclusive)
Structure (SMILES): C=CCNC(S)=NNc1ncnc2sc3c(c12)CC(C)(C)OC3

- AC50 (Cytochrome P450 3A4): 3.98 µM (inconclusive)
Structure (SMILES): Cc1ccccc1CN1C2=NCCN2C(=O)C2=C1CCN(Cc1ccccc1)C2

- AC50 (Cytochrome P450 2C19): inconclusive
- AC50 (Cytochrome P450 2C9): 17.8 µM (inconclusive)
Structure (SMILES): CCC(=O)Nc1cccc(NC(=O)c2cccc([N+](=O)[O-])c2)c1
